From US7176231B2, “Aryl-containing 5-acylindolinones, the preparation thereof and their use as medicaments” (Boehringer Ingelheim International GmbH, priority 2004, dated 2007)

How the values were obtained:
mice = test: Tolerability after oral administration to mice; type: in vivo; details: oral administration of 10 mg/kg to mice
db/db mice = test: Oral glucose tolerance test; type: in vivo; details: fasted db/db mice, 2 g/kg glucose orally 30 minutes after substance
Description: Fasted db/db mice 7 to 9 weeks old (Janvier, France) are weighed and blood is taken from the tip of the tail. This blood is used for the first measurement of glucose on the basis of which the animals are randomised and divided into groups. The test substance to be tested may be given either orally or i.p. as a suspension in 0.5% Natrosol. 30 minutes after the administration of the substance the animals are given orally 2 g/kg glucose in a volume of 0.1 ml/100 g body weight dissolved in NaCl solution. Subsequently, the glucose values are determined from the tail blood using a glucometer (Ultra OneTouch, Lifescan) at specific time intervals [30, 60, 120 and 180 minutes after oral administration of the glucose].

## CC(=O)c1ccc2c(c1)/C(=C(/Nc1ccc(CN(C)C)cc1)c1ccc3c(c1)OCCO3)C(=O)N2 [Example 1.051, 5-acetyl-3-{[4-(dimethylamino-methyl)-phenylamino]-(2,3-dihydro-benzo[1,4]-dioxin-6-yl)-methylidene}-2-indolinone]
mice
  changes in the animals' behaviour: no changes were observed
db/db mice
  activity in the oral glucose tolerance test: significant activity
